# Where a name gives a salt, the structure may show the parent alone. Read-outs that look alike come from different tables or passages of the source.
# Assays:
# Parameters in all cases: species or system AML cell lines (8); Primary HTS, single concentration about 10 uM, Cell Titer Glo viability; log10 luminescence, per cent inhibition relative to cycloheximide control
# Details in all cases: 72 h, relative to cycloheximide control, log10 luminescence, inhibitor
# MV4-11 = system: MV4-11
# CMS = system: CMS
# U937 = system: U937
# CHRF288-11 = system: CHRF288-11
# CMK = system: CMK
# MOLM-13 = system: MOLM-13
# ML-2 = system: ML-2
# M07e = system: M07e
structure (smiles),measurement,setting,value
"CN(C)C(=O)Oc1ccc[n+](C)c1 [SJ000286222-6, PYRIDOSTIGMINE BROMIDE]",MV4-11 %inh,MV4-11,-1.282%
same,CMS %inh,CMS,-3.618%
same,U937 %inh,U937,1.718%
same,CHRF288-11 %inh,CHRF288-11,-1.775%
same,CMK %inh,CMK,-7.252%
same,MOLM-13 %inh,MOLM-13,-2.128%
same,ML-2 %inh,ML-2,1.797%
same,M07e %inh,M07e,2.078%
"CC(=O)O[C@]1(C(C)=O)CC[C@H]2[C@@H]3C=C(Cl)C4=CC(=O)[C@@H]5C[C@@H]5[C@]4(C)[C@H]3CC[C@@]21C [SJ000286483-6, CYPROTERONE ACETATE]",MV4-11 %inh,MV4-11,2.562%
same,CMS %inh,CMS,2.38%
same,U937 %inh,U937,1.732%
same,CHRF288-11 %inh,CHRF288-11,-0.8844%
same,CMK %inh,CMK,-1.818%
same,MOLM-13 %inh,MOLM-13,-1.163%
same,ML-2 %inh,ML-2,-2.366%
same,M07e %inh,M07e,0.443%
"CCCCC1=NC2(CCCC2)C(=O)N1Cc1ccc(-c2ccccc2-c2nnn[nH]2)cc1 [SJ000286674-2, IRBESARTAN]",MV4-11 %inh,MV4-11,1.017%
same,CMS %inh,CMS,-2.028%
same,U937 %inh,U937,-0.5514%
same,CHRF288-11 %inh,CHRF288-11,1.638%
same,CMK %inh,CMK,0.3545%
same,MOLM-13 %inh,MOLM-13,17.32%
same,ML-2 %inh,ML-2,1.25%
same,M07e %inh,M07e,0.4149%
"CC(C)=CCC/C(C)=C/CC/C(C)=C/CO [SJ000286702-2, FARNESOL]",MV4-11 %inh,MV4-11,-0.08153%
same,CMS %inh,CMS,-1.627%
same,U937 %inh,U937,-0.4236%
same,CHRF288-11 %inh,CHRF288-11,-1.355%
same,CMK %inh,CMK,-1.858%
same,MOLM-13 %inh,MOLM-13,-0.6204%
same,ML-2 %inh,ML-2,1.139%
same,M07e %inh,M07e,1.694%
"C[C@H](CS)C(=O)N1CCC[C@H]1C(=O)O [SJ000286908-7, CAPTOPRIL]",MV4-11 %inh,"MV4-11; MV4-11 %inh, 10 µM",2.877%
same,CMS %inh,"CMS; CMS %inh, 10 µM",0.1894%
same,U937 %inh,"U937; U937 %inh, 10 µM",2.172%
same,CHRF288-11 %inh,"CHRF288-11; CHRF288-11 %inh, 10 µM",0.04975%
same,CMK %inh,"CMK; CMK %inh, 10 µM",-2.127%
same,MOLM-13 %inh,"MOLM-13; MOLM-13 %inh, 10 µM",2.932%
same,ML-2 %inh,"ML-2; ML-2 %inh, 10 µM",-0.2844%
same,M07e %inh,"M07e; M07e %inh, 10 µM",3.365%
"C[C@H](CS)C(=O)N1CCC[C@H]1C(=O)O [SJ000286908-8, CAPTOPRIL]",MV4-11 %inh,"MV4-11; MV4-11 %inh, 10 µM",-2.616%
same,CMS %inh,"CMS; CMS %inh, 10 µM",-1.291%
same,U937 %inh,"U937; U937 %inh, 10 µM",-1.359%
same,CHRF288-11 %inh,"CHRF288-11; CHRF288-11 %inh, 10 µM",4.869%
same,CMK %inh,"CMK; CMK %inh, 10 µM",0.6591%
same,MOLM-13 %inh,"MOLM-13; MOLM-13 %inh, 10 µM",0.1339%
same,ML-2 %inh,"ML-2; ML-2 %inh, 10 µM",-1.462%
same,M07e %inh,"M07e; M07e %inh, 10 µM",-2.045%
"C[C@H](CS)C(=O)N1CCC[C@H]1C(=O)O [SJ000286908-9, CAPTOPRIL]",MV4-11 %inh,"MV4-11; MV4-11 %inh, 10 µM",1.577%
same,CMS %inh,"CMS; CMS %inh, 10 µM",0.9516%
same,U937 %inh,"U937; U937 %inh, 10 µM",-2.673%
same,CHRF288-11 %inh,"CHRF288-11; CHRF288-11 %inh, 10 µM",-5.11%
same,CMK %inh,"CMK; CMK %inh, 10 µM",-4.021%
same,MOLM-13 %inh,"MOLM-13; MOLM-13 %inh, 10 µM",-1.689%
same,ML-2 %inh,"ML-2; ML-2 %inh, 10 µM",-0.6374%
same,M07e %inh,"M07e; M07e %inh, 10 µM",0.8569%
"C[C@H](CS)C(=O)N1CCC[C@H]1C(=O)O [SJ000286908-10, CAPTOPRIL]",MV4-11 %inh,"MV4-11; MV4-11 %inh, 10 µM",-0.07613%
same,CMS %inh,"CMS; CMS %inh, 10 µM",-3.33%
same,U937 %inh,"U937; U937 %inh, 10 µM",51.26%
same,CHRF288-11 %inh,"CHRF288-11; CHRF288-11 %inh, 10 µM",-3.972%
same,CMK %inh,"CMK; CMK %inh, 10 µM",3.343%
same,MOLM-13 %inh,"MOLM-13; MOLM-13 %inh, 10 µM",0.8092%
same,ML-2 %inh,"ML-2; ML-2 %inh, 10 µM",-0.772%
same,M07e %inh,"M07e; M07e %inh, 10 µM",-1.533%
"C[C@H](CS)C(=O)N1CCC[C@H]1C(=O)O [SJ000286908-11, CAPTOPRIL]",MV4-11 %inh,"MV4-11; MV4-11 %inh, 10 µM",-2.697%
same,CMS %inh,"CMS; CMS %inh, 10 µM",-1.329%
same,U937 %inh,"U937; U937 %inh, 10 µM",-18.23%
same,CHRF288-11 %inh,"CHRF288-11; CHRF288-11 %inh, 10 µM",-3.474%
same,CMK %inh,"CMK; CMK %inh, 10 µM",-6.202%
same,MOLM-13 %inh,"MOLM-13; MOLM-13 %inh, 10 µM",1.337%
same,ML-2 %inh,"ML-2; ML-2 %inh, 10 µM",-1.011%
same,M07e %inh,"M07e; M07e %inh, 10 µM",0.3888%
"C[C@H](CCC(=O)O)[C@H]1CC[C@H]2[C@@H]3CC[C@@H]4C[C@H](O)CC[C@]4(C)[C@H]3CC[C@]12C [SJ000286918-3, LITHOCHOLIC ACID]",MV4-11 %inh,MV4-11,1.619%
same,CMS %inh,CMS,2.61%
same,U937 %inh,U937,0.7056%
same,CHRF288-11 %inh,CHRF288-11,7.532%
same,CMK %inh,CMK,-0.09844%
same,MOLM-13 %inh,MOLM-13,2.496%
same,ML-2 %inh,ML-2,1.903%
same,M07e %inh,M07e,1.09%
"CC1(C)O[C@@H]2C[C@H]3[C@@H]4CCC5=CC(=O)CC[C@]5(C)[C@@]4(F)[C@@H](O)C[C@]3(C)[C@]2(C(=O)CCl)O1 [SJ000286948-3, HALCINONIDE]",MV4-11 %inh,MV4-11,4.793%
same,CMS %inh,CMS,6.83%
same,U937 %inh,U937,10.5%
same,CHRF288-11 %inh,CHRF288-11,0.4115%
same,CMK %inh,CMK,7.614%
same,MOLM-13 %inh,MOLM-13,15.68%
same,ML-2 %inh,ML-2,2.814%
same,M07e %inh,M07e,-3.04%
"CCCC(CCC)C(=O)O [SJ000287008-5, VALPROATE SODIUM | VALPROIC ACID SODIUM | DIVALPROEX SODIUM | SODIUM VALPROATE | ABBOTT-44090 | NIK-313 | NIK-317 | VALPROATE SODIUM | VALPROIC ACID SODIUM SALT | | SODIUM VALPROATE | VALPROATE SODIUM | VALPROIC ACID SODIUM SALT | ABBOTT-44090 | NIK-313 | NIK-317 | | SODIUM VALPROATE | VALPROIC ACID SODIUM SALT (SODIUM VALPROATE)]",MV4-11 %inh,"MV4-11; MV4-11 %inh, 10 µM",-0.02212%
same,CMS %inh,"CMS; CMS %inh, 10 µM",1.675%
same,U937 %inh,"U937; U937 %inh, 10 µM",-1.54%
same,CHRF288-11 %inh,"CHRF288-11; CHRF288-11 %inh, 10 µM",8.896%
same,CMK %inh,"CMK; CMK %inh, 10 µM",-3.296%
same,MOLM-13 %inh,"MOLM-13; MOLM-13 %inh, 10 µM",-1.216%
same,ML-2 %inh,"ML-2; ML-2 %inh, 10 µM",0.7854%
same,M07e %inh,"M07e; M07e %inh, 10 µM",-4.206%
"CCCC(CCC)C(=O)O [SJ000287008-6, VALPROATE SODIUM | VALPROIC ACID SODIUM | DIVALPROEX SODIUM | SODIUM VALPROATE | ABBOTT-44090 | NIK-313 | NIK-317 | VALPROATE SODIUM | VALPROIC ACID SODIUM SALT | | SODIUM VALPROATE | VALPROATE SODIUM | VALPROIC ACID SODIUM SALT | ABBOTT-44090 | NIK-313 | NIK-317 | | SODIUM VALPROATE | VALPROIC ACID SODIUM SALT (SODIUM VALPROATE)]",MV4-11 %inh,"MV4-11; MV4-11 %inh, 10 µM",-1.147%
same,CMS %inh,"CMS; CMS %inh, 10 µM",-1.126%
same,U937 %inh,"U937; U937 %inh, 10 µM",-3.41%
same,CHRF288-11 %inh,"CHRF288-11; CHRF288-11 %inh, 10 µM",0.5614%
same,CMK %inh,"CMK; CMK %inh, 10 µM",-3.672%
same,MOLM-13 %inh,"MOLM-13; MOLM-13 %inh, 10 µM",-2.019%
same,ML-2 %inh,"ML-2; ML-2 %inh, 10 µM",-1.422%
same,M07e %inh,"M07e; M07e %inh, 10 µM",-0.5439%
"CC1(C)O[C@@H]2C[C@H]3[C@@H]4C[C@H](F)C5=CC(=O)C=C[C@]5(C)[C@@]4(F)[C@@H](O)C[C@]3(C)[C@]2(C(=O)CO)O1 [SJ000287016-2, FLUOCINOLONE ACETONIDE]",MV4-11 %inh,MV4-11,1.404%
same,CMS %inh,CMS,9.034%
same,U937 %inh,U937,7.141%
same,CHRF288-11 %inh,CHRF288-11,4.658%
same,CMK %inh,CMK,-1.286%
same,MOLM-13 %inh,MOLM-13,1.204%
same,ML-2 %inh,ML-2,2.188%
same,M07e %inh,M07e,-0.198%
"C[C@]12CCC(=O)C=C1CC[C@@H]1[C@@H]2C(=O)C[C@@]2(C)[C@H]1CC[C@]2(O)C(=O)CO [SJ000287023-7, CORTISONE]",MV4-11 %inh,MV4-11,-0.1807%
same,CMS %inh,CMS,-0.2521%
same,U937 %inh,U937,-1.735%
same,CHRF288-11 %inh,CHRF288-11,8.551%
same,CMK %inh,CMK,-2.132%
same,MOLM-13 %inh,MOLM-13,-2.413%
same,ML-2 %inh,ML-2,-0.1775%
same,M07e %inh,M07e,-0.4313%
CCOC(=O)[C@H](CCc1ccccc1)N[C@@H](C)C(=O)N1[C@H](C(=O)O)C[C@@H]2CCC[C@@H]21 [SJ000287048-3],MV4-11 %inh,MV4-11,3.659%
same,CMS %inh,CMS,-0.1854%
same,U937 %inh,U937,1.846%
same,CHRF288-11 %inh,CHRF288-11,-4.815%
same,CMK %inh,CMK,1.362%
same,MOLM-13 %inh,MOLM-13,-1.2%
same,ML-2 %inh,ML-2,-0.556%
same,M07e %inh,M07e,-2.965%
"C[C@@H]1C[C@H]2[C@@H]3C[C@H](F)C4=CC(=O)C=C[C@]4(C)[C@@]3(F)[C@@H](O)C[C@]2(C)[C@@]1(O)C(=O)CO [SJ000287102-3, FLUMETHASONE]",MV4-11 %inh,MV4-11,-0.9154%
same,CMS %inh,CMS,2.822%
same,U937 %inh,U937,4.356%
same,CHRF288-11 %inh,CHRF288-11,4.435%
same,CMK %inh,CMK,4.189%
same,MOLM-13 %inh,MOLM-13,0.6987%
same,ML-2 %inh,ML-2,1.1%
same,M07e %inh,M07e,-0.252%
"CC1(C)O[C@@H]2C[C@H]3[C@@H]4C[C@H](F)C5=CC(=O)CC[C@]5(C)[C@H]4[C@@H](O)C[C@]3(C)[C@]2(C(=O)CO)O1 [SJ000287138-3, FLURANDRENOLIDE]",MV4-11 %inh,MV4-11,-1.501%
same,CMS %inh,CMS,0.1237%
same,U937 %inh,U937,5.849%
same,CHRF288-11 %inh,CHRF288-11,7.802%
same,CMK %inh,CMK,-0.8734%
same,MOLM-13 %inh,MOLM-13,-1.421%
same,ML-2 %inh,ML-2,-1.728%
same,M07e %inh,M07e,-0.6056%
